{"source": "patent US20050282869A1", "about": "“Use of a compound in the treatment of sleep disorders and the like, in providing refreshedness on waking and a method for the treatment of grogginess therewith” (priority 2001, published 2005)", "key": {"[1]": {"system": "patients with temporary sleep disturbance", "experiment": "Clinical trial: wrist actimetry (SDI, time to sleep onset)", "type": "in vivo, human", "description": "(§1) The efficacy of triprolidine in enabling a patient to feel refreshed or alert upon waking after taking triprolidine prior to sleeptime was investigated using patients with a history of sleep disorders and utilising triprolidine prepared in accordance with example 3.\n(§2) The study herein utilised the following determination methods:— • (a) Karolinska scale as defined in: Int. J. Neuroscience 52 29-37 (1990); and validation: Sleep 17 (3) 236-41 (1994) • (b) Loughborough Sleep log as defined in: Sleep 17 (2)146-159 (1994); and Sleep 18 (2) 127-134 (1995) • (c) Actimetry—AW4 actimeters (Cambridge Neurotechnology) were worn continuously throughout the study. A button was pressed at night when the subject desired to go to sleep and again in the morning upon waking. The results of the actimeter study were analysed in the manner defined by Home et al (Sleep, 17(2); 146-159).\nSDI % was calculated as follows:— [formula]\nThis is the measure of: • 1. The length of time it took to fall asleep • 2. Any awakenings throughout the sleep period • Expressed as a % of total time spent in bed. Study Objectives • To evaluate the effects of two doses of triprolidine compared with placebo. Study Design\n(§3) A multiple-dose, placebo-controlled, parallel-group, double-blind, randomised study investigating the effects of 2.5 mg and 5 mg triprolidine in patients with temporary sleep disturbance.\n(§4) Male and Female candidates aged 18 years and above were recruited to one of five research centres by means of local advertising. Candidates were screened by means of a telephone questionnaire and selected candidates invited for interview at the research centre. Key inclusion criteria used to select candidates for the study were: • A record of poor sleep at least 2 nights per week • A record of poor sleep for at least 1 week but not more than 3 months • Sleep disturbance not caused by underlying disease • No excess use of alcohol or drugs • Sleep disturbance affected daytime functioning\n(§5) The candidates came to the research centre on Thursday or Friday and were fitted with a wrist actimeter (AW4 from Cambridge Technology) to establish a baseline measure for SDI and were provided with diary cards to record subjective assessments for the Loughborough Sleep Log and the Karolinska Sleepiness Scale. They returned to the investigational site on the Monday and were issued with the study compositions (2.5 mg triprolidine, 5 mg triprolidine or placebo). The investigator telephoned a central randomisation centre where the subject was randomised to a particular treatment group using a dynamic balanced randomisation algorithm. The subject was given three doses of their allocated study medication and instructed to take a single dose of two tablets 20 minutes before they intended to go to sleep on three consecutive evenings, commencing that evening. The diary cards for the Loughborough Sleep Log and Karolinska Sleepiness Scale were asked to be completed on waking.\n(§6) 198 candidates completed the study, of whom 178 provided evaluable data. (61 placebo, 60 on 2.5 mg triprolidine and 57 on 5 mg triprolidine. The subjects on 2.5 mg dose took one tablet and placebo those on 5 mg dose took 2×2.5 mg tablets. The subjects on placebo took a dose to match the active treatments (2 tablets).\nThe study design used 3 groups. On average, the number of individuals in each of the 3 groups (placebo, 2.5 mg triprolidine and 5 mg triprolidine) was 60±10 patients.\nIn the trial, patients were tested during a seven day period and the results have been analysed for a mean of three days in the middle of this period. The effects of triprolidine at dose level 2.5 mg and 5.0 mg are compared with placebo in table 1.\nGenerally the treatment groups were well balanced in terms of the demographic data. Unless otherwise mentioned all group data was analysed using ANOVA. […]"}, "[2]": {"system": "patients with temporary sleep disturbance", "experiment": "Clinical trial: Loughborough sleep log questionnaire", "type": "in vivo, human", "conditions": "for Loughborough Sleep Log: Awoke Very Refreshed or Refreshed Responses, %: % of patients", "description": "as §1, §2, §3, §4, §5\nCandidates were required to complete a questionnaire 15 minutes after awaking on the feeling of refreshedness assessed on a 5-point scale, the Loughborough sleep log.\nas §6\nGenerally the treatment groups were well balanced in terms of the demographic data. Unless otherwise mentioned all group data was analysed using ANOVA. In two cases, namely, how the patient felt 15 minutes after awakening in the Loughborough Sleep Log and the Karolinska Sleepiness Scale at 20 minutes, the two variables were analysed using ANCOVA by including the weekend and the mean of Friday/Saturday/Sunday night as a covariate. The method was a closed test procedure (Williams' test). Each of the tests were to be conducted at the 5% level. The analysis of the secondary endpoints was similarly conducted using the Student's t-tests on parameter estimates taken from the analysis of variance model presented above. […]"}, "volunteers": {"system": "volunteers", "conditions": "single doses 10 mg or 20 mg sustained release at bedtime; cited from earlier work"}, "[3]": {"system": "patients with temporary sleep disturbance", "experiment": "Clinical trial: Karolinska 9-point sleepiness scale", "type": "in vivo, human", "conditions": "for Karolinska 9-point scale (a) I feel extremely alert, very alert or alert, %: scales 1, 2 or 3", "description": "as §1, §2, §3, §4, §5\nA daytime sleepiness assessment was also made 20 minutes, 2 hours and 4 hours after awaking on the Karolinska 9-point scale, ie. the sleepiness scale.\nas §6\nGenerally the treatment groups were well balanced in terms of the demographic data. Unless otherwise mentioned all group data was analysed using ANOVA. In two cases, namely, how the patient felt 15 minutes after awakening in the Loughborough Sleep Log and the Karolinska Sleepiness Scale at 20 minutes, the two variables were analysed using ANCOVA by including the weekend and the mean of Friday/Saturday/Sunday night as a covariate. The method was a closed test procedure (Williams' test). Each of the tests were to be conducted at the 5% level. The analysis of the secondary endpoints was similarly conducted using the Student's t-tests on parameter estimates taken from the analysis of variance model presented above.\nKarolinska's sleepiness scale is set out below and the results for placebo, 2.5 and 5.0 mg doses of triprolidine are shown in tables 4 and 5. […]"}, "[4]": {"conditions": "2.5 mg, mean of the 3 nights, p<0.05"}, "[5]": {"conditions": "both treatments (2.5 mg and 5 mg), every treatment night"}}}
{"smiles": "Cc1ccc(/C(=C\\CN2CCCC2)c2ccccn2)cc1", "note": "[triprolidine]", "values": [{"measurement": "SDI (%) (Sleep latency onset and Quality of sleep) (Actimeter), Mean", "setting": "[1]; 2.5 mg dose 20 min before sleep, Mon", "result": 11.33, "unit": "%"}, {"measurement": "SDI (%) (Sleep latency onset and Quality of sleep) (Actimeter), Mean", "setting": "[1]; 2.5 mg dose, Mean of 3", "result": 11.56, "unit": "%"}, {"measurement": "TTSO (min) (Time to Sleep onset) (Actimeter), Mean", "setting": "[1]; 2.5 mg dose, Mean of 3", "result": 15.53, "unit": "min"}, {"measurement": "TTSO (min) (Time to Sleep onset) (Actimeter), Mean", "setting": "[1]; 2.5 mg dose, Mon", "result": 16.22, "unit": "min"}, {"measurement": "SDI (%) (Sleep latency onset and Quality of sleep) (Actimeter), Mean", "setting": "[1]; 2.5 mg dose, Tues", "result": 12.15, "unit": "%"}, {"measurement": "TTSO (min) (Time to Sleep onset) (Actimeter), Mean", "setting": "[1]; 2.5 mg dose, Tues", "result": 15.62, "unit": "min"}, {"measurement": "SDI (%) (Sleep latency onset and Quality of sleep) (Actimeter), Mean", "setting": "[1]; 2.5 mg dose, Wed", "result": 11.2, "unit": "%"}, {"measurement": "SDI compared to placebo", "setting": "[1]; 2.5 mg, mean of the 3 nights, p<0.01", "result": "significantly reduced"}, {"measurement": "sleep latency onset compared to placebo", "setting": "[1]; [4]", "result": "reduced"}, {"measurement": "SDI (%) (Sleep latency onset and Quality of sleep) (Actimeter), Mean", "setting": "[1]; 5 mg dose, Mean of 3", "result": 12.23, "unit": "%"}, {"measurement": "TTSO (min) (Time to Sleep onset) (Actimeter), Mean", "setting": "[1]; 5 mg dose, Mean of 3", "result": 16.93, "unit": "min"}, {"measurement": "SDI (%) (Sleep latency onset and Quality of sleep) (Actimeter), Mean", "setting": "[1]; 5 mg dose, Mon", "result": 11.72, "unit": "%"}, {"measurement": "TTSO (min) (Time to Sleep onset) (Actimeter), Mean", "setting": "[1]; 5 mg dose, Mon", "result": 16.16, "unit": "min"}, {"measurement": "SDI (%) (Sleep latency onset and Quality of sleep) (Actimeter), Mean", "setting": "[1]; 5 mg dose, Tues", "result": 12.71, "unit": "%"}, {"measurement": "TTSO (min) (Time to Sleep onset) (Actimeter), Mean", "setting": "[1]; 5 mg dose, Tues", "result": 17.88, "unit": "min"}, {"measurement": "SDI (%) (Sleep latency onset and Quality of sleep) (Actimeter), Mean", "setting": "[1]; 5 mg dose, Wed", "result": 11.81, "unit": "%"}, {"measurement": "TTSO (min) (Time to Sleep onset) (Actimeter), Mean", "setting": "[1]; 5 mg dose, Wed", "result": 16.36, "unit": "min"}, {"measurement": "SDI compared with placebo", "setting": "[1]; [5]", "result": "reduced"}, {"measurement": "sleep latency onset compared with placebo", "setting": "[1]; [5]", "result": "reduced"}, {"measurement": "no of times woke up (Loughborough sleep log), Mean", "setting": "[2]; 2.5 mg dose, Mean of 3", "result": 1.22}, {"measurement": "time to fall asleep (min) (Loughborough sleep log), Mean", "setting": "[2]; 2.5 mg dose, Mean of 3", "result": 23.93, "unit": "min"}, {"measurement": "no of times woke up (Loughborough sleep log), Mean", "setting": "[2]; 2.5 mg dose, Mon", "result": 1.18}, {"measurement": "time to fall asleep (min) (Loughborough sleep log), Mean", "setting": "[2]; 2.5 mg dose, Mon", "result": 23.67, "unit": "min"}, {"measurement": "Loughborough Sleep Log: Awoke Very Refreshed or Refreshed Responses, %", "setting": "[2]; 2.5 mg dose, Monday", "result": 23, "unit": "%"}, {"measurement": "no of times woke up (Loughborough sleep log), Mean", "setting": "[2]; 2.5 mg dose, Tues", "result": 1.37}, {"measurement": "time to fall asleep (min) (Loughborough sleep log), Mean", "setting": "[2]; 2.5 mg dose, Tues", "result": 24.44, "unit": "min"}, {"measurement": "Loughborough Sleep Log: Awoke Very Refreshed or Refreshed Responses, %", "setting": "[2]; 2.5 mg dose, Tuesday", "result": 23, "unit": "%"}, {"measurement": "no of times woke up (Loughborough sleep log), Mean", "setting": "[2]; 2.5 mg dose, Wed", "result": 1.11}, {"measurement": "time to fall asleep (min) (Loughborough sleep log), Mean", "setting": "[2]; 2.5 mg dose, Wed", "result": 20.95, "unit": "min"}, {"measurement": "feeling of refreshedness 15 minutes after waking vs placebo (Loughborough sleep log)", "setting": "[2]; [4]", "result": "more refreshed"}, {"measurement": "no of times woke up (Loughborough sleep log), Mean", "setting": "[2]; 5 mg dose, Mean of 3", "result": 1.42}, {"measurement": "time to fall asleep (min) (Loughborough sleep log), Mean", "setting": "[2]; 5 mg dose, Mean of 3", "result": 26.5, "unit": "min"}, {"measurement": "no of times woke up (Loughborough sleep log), Mean", "setting": "[2]; 5 mg dose, Mon", "result": 1.49}, {"measurement": "time to fall asleep (min) (Loughborough sleep log), Mean", "setting": "[2]; 5 mg dose, Mon", "result": 22.02, "unit": "min"}, {"measurement": "no of times woke up (Loughborough sleep log), Mean", "setting": "[2]; 5 mg dose, Tues", "result": 1.42}, {"measurement": "time to fall asleep (min) (Loughborough sleep log), Mean", "setting": "[2]; 5 mg dose, Tues", "result": 32.08, "unit": "min"}, {"measurement": "Loughborough Sleep Log: Awoke Very Refreshed or Refreshed Responses, %", "setting": "[2]; 5 mg dose, Tuesday", "result": 8.2, "unit": "%"}, {"measurement": "no of times woke up (Loughborough sleep log), Mean", "setting": "[2]; 5 mg dose, Wed", "result": 1.39}, {"measurement": "time to fall asleep (min) (Loughborough sleep log), Mean", "setting": "[2]; 5 mg dose, Wed", "result": 24.24, "unit": "min"}, {"measurement": "Loughborough Sleep Log: Awoke Very Refreshed or Refreshed Responses, %", "setting": "[2]; 5 mg dose, Wednesday", "result": 14.8, "unit": "%"}, {"measurement": "individuals with response of sleeping extremely well or very well (morning log of the Loughborough sleep log)", "setting": "[2]; dose not stated", "result": "over 35%"}, {"measurement": "sleep onset latency compared with placebo", "setting": "volunteers", "result": "did not significantly alter"}, {"measurement": "total sleep time compared with placebo", "setting": "volunteers", "result": "no effect"}, {"measurement": "wakefulness during sleep compared with placebo", "setting": "volunteers", "result": "no effect"}, {"measurement": "(b) I feel (i) sleepy, [and need to make] some effort or (ii) very sleepy, a great effort to keep awake, %", "setting": "[3]; 2.5 mg dose, Wednesday, Karolinska scales 8 and 9, on waking", "result": 6.5, "unit": "%"}, {"measurement": "Karolinska 9-point scale (a) I feel extremely alert, very alert or alert, %", "setting": "[3]; 2.5 mg dose, Wednesday, on waking", "result": 21.0, "unit": "%"}, {"measurement": "percentage of people feeling alert, very alert or extremely alert on waking vs placebo (Karolinska log)", "setting": "[3]; 2.5 mg, mean of the 3 nights", "result": "greater percentage"}, {"measurement": "percentage of people feeling sleepy or very sleepy on waking vs placebo (Karolinska log)", "setting": "[3]; 2.5 mg, mean of the 3 nights", "result": "lower percentage"}, {"measurement": "residual hangover effects/morning grogginess", "setting": "[3]; 2.5 mg, mean of the 3 nights", "result": "no evidence of residual hangover effects/morning grogginess"}, {"measurement": "Karolinska 9-point scale (a) I feel extremely alert, very alert or alert, %", "setting": "[3]; 5 mg dose, Monday, on waking", "result": 6.3, "unit": "%"}, {"measurement": "Karolinska 9-point scale (a) I feel extremely alert, very alert or alert, %", "setting": "[3]; 5 mg dose, Tuesday, on waking", "result": 9.5, "unit": "%"}]}
